Four molecules from publication PMC11056982, “Paraptotic Cell Death as an Unprecedented Mode of Action Observed for New Bipyridine-Silver(I) Compounds Bearing Phosphane Coligands” (Journal of Medicinal Chemistry, 2024) can be followed below.

What all share (format): cell-based, human
In one assay the test system is HCT116 WT/OxR. The experiment in a line: MTT viability assay in oxaliplatin-resistant HCT116 WT/OxR cells. The conditions noted are these: 72 h; for relative resistance (IC50 HCT116 WT/OxR divided by IC50 HCT116 WT): resistant subline vs parental line. As to the method:
(§1) Cells were seeded (2 × 10^4 cells/well for HCT116, HCT116/OxR, 3 × 10^4 cells/well for HCT116 p53KO, 4 × 10^4 cells/well for MES-OV, SK-OV-3, and their respective CBP resistant counterparts) in 100 μL/well in 96-well plates and allowed to attach for 24 h at 37 °C and 5% CO2. Compounds were first dissolved in DMSO to a 10 mM stock solution and then further diluted in a growth medium (DMSO concentration <1%). After 24 h, cells were treated with 100 μL of different drugs dilutions in triplicates with the final concentrations of 0, 0.01, 0.05, 0.075, 0.1, 0.5, 0.75, 1, 2.5, 5, 7.5, and 10 μM depending on the compound and the cell line.
A general note: Tetrazolium assays rely on reduction of a dye to a coloured formazan, in cell work by metabolically active cells.

A further assay has as its system SK-OV-3/CBP. Briefly: MTT viability assay in carboplatin-resistant SK-OV-3/CBP cells. The conditions noted are these: 72 h; for relative resistance (IC50 SK-OV-3/CBP divided by IC50 SK-OV-3): resistant subline vs parental line. As to the method:
as §1

The subject of a further assay is MES-OV/CBP. The experiment in a line: MTT viability assay in carboplatin-resistant MES-OV/CBP cells. The conditions noted are these: 72 h. As to the method: as §1
For the next assay, the system named is SK-OV-3. The experiment in a line: MTT viability assay in SK-OV-3 ovarian carcinoma cells. As to conditions: 72 h, mean ± SD of three independent experiments. The method, then:
as §1

The next assay concerns MES-OV. The experiment in a line: MTT viability assay in MES-OV ovarian carcinoma cells. As to conditions: 72 h, MTT, mean ± SD. The method, then: as §1
The next assay deals with HCT116 p53KO. Briefly: MTT viability assay in p53-deleted HCT116 p53KO cells. As to conditions: 72 h, p53-deleted subclone, mean ± SD. As to the method: as §1
For the next assay, the system named is HCT116 WT. The experiment in a line: MTT viability assay in HCT116 WT colon carcinoma cells. As to conditions: 72 h, mean ± SD. As to the method: as §1
Where [1] appears, read: MTT, carboplatin-resistant subline, mean ± SD.

Marks after values point to notes of the source that are not given here.

Broadly, the IC50 is the concentration that gives 50% inhibition. High values mean weaker potency, low ones greater potency.

Take `Cc1ccnc(-c2cc(C)ccn2)c1.O=S(=O)([O-])C(F)(F)F.[Ag+].c1ccc(P(c2ccccc2)c2ccccc2)cc1` [Compound 2, [Ag(4,4′-CH3-2,2′-bipy)(PPh3)][CF3SO3]]: the “relative resistance (IC50 HCT116 WT/OxR divided by IC50 HCT116 WT)” value with HCT116 WT/OxR is on record as 0.9^n.s. In addition, the “relative resistance (IC50 SK-OV-3/CBP divided by IC50 SK-OV-3)” value in the assay with SK-OV-3/CBP is 1.5^n.s.

With `O=S(=O)([O-])C(F)(F)F.OCc1ccnc(-c2cc(CO)ccn2)c1.[Ag+].c1ccc(P(c2ccccc2)c2ccccc2)cc1` [Compound 3, [Ag(4,4′-CH2OH-2,2′-bipy)(PPh3)][CF3SO3]], the “relative resistance (IC50 HCT116 WT/OxR divided by IC50 HCT116 WT)” value in the assay with HCT116 WT/OxR is given as 0.7^n.s. Besides, in the assay on MES-OV/CBP (resistant subline vs parental line), the “relative resistance (IC50 MES-OV/CBP divided by IC50 MES-OV)” value is reported as 0.8^n.s. Moreover, the “relative resistance (IC50 SK-OV-3/CBP divided by IC50 SK-OV-3)” value with SK-OV-3/CBP is reported as 1.4^n.s.

For `N.N.O=C([O-])C1(C(=O)[O-])CCC1.[Pt+2]` [carboplatin, reference compound], the IC50 is 94.7 ± 9.24 µM with MES-OV/CBP (setting [1]), 56.5 ± 15.4 µM with SK-OV-3, 89.9 ± 5.64 µM in the assay with SK-OV-3/CBP (setting [1]) and 44.3 ± 7.09 µM in the assay on MES-OV. Further, in the assay with SK-OV-3/CBP, the “relative resistance (IC50 SK-OV-3/CBP divided by IC50 SK-OV-3)” value is reported as 1.6*.

With `O=C1[O][Pt]2([NH][C@@H]3CCCC[C@H]3[NH]2)[O]C1=O` [oxaliplatin, reference compound], the concentration for half-maximal inhibition (IC50) was greater than 10 µM with HCT116 WT/OxR (MTT, oxaliplatin-resistant subline, mean ± SD); 2.37 ± 0.45 µM in the assay with HCT116 p53KO; 0.72 ± 0.18 µM with HCT116 WT. In addition, the “relative resistance (IC50 HCT116 WT/OxR divided by IC50 HCT116 WT)” value with HCT116 WT/OxR is listed as >14**.
